In ChEMBL document CHEMBL1122633, “Interactions of antitumor drugs with natural DNA: 1H NMR study of binding mode and kinetics” (J Med Chem, 1984):

Test system: Nucleic Acid
Assay: DNA binding dissociation constant as KD
Assay type: nucleic-acid assay

Question: For `CCN(CC)CCCC(C)Nc1ccnc2cc(Cl)ccc12` (stereo unspecified), which Log Kd is on record?
Answer: Its Log Kd is 4.25.

Question: Which Log Kd does the source give for `c1ccc2c(c1)[nH]c1cnccc12` here?
Answer: The Log Kd was 5.34.

Question: How did the Log Kd turn out when `CN(C)CCN1C(=O)c2cccc3cc([N+](=O)[O-])cc(c23)C1=O` was run?
Answer: The Log Kd was 5.16.

Question: For `CS(=O)(=O)Nc1cccc(Nc2c3ccccc3nc3ccccc23)c1`, which Log Kd is on record?
Answer: The Log Kd was 5.8.

Question: Which Log Kd does the source give for `Cn1cc(NC(=O)c2cc(NC(=O)c3cc(NC=O)cn3C)cn2C)cc1C(=O)NCCC(=N)N` here?
Answer: The Log Kd was 6.06.

Question: How did the Log Kd turn out when `CS(=O)(=O)Nc1ccccc1Nc1c2ccccc2nc2ccccc12` was run?
Answer: The Log Kd was 5.72.

Question: Which Log Kd does the source give for `Cc1c2ccncc2c(C)c2c1[nH]c1ccc(O)cc12` here?
Answer: Its Log Kd is 0.3.

Question: For `CC[n+]1c(-c2ccccc2)c2cc(N)ccc2c2ccccc21`, which Log Kd is on record?
Answer: The Log Kd was 4.9.

Question: How did the Log Kd turn out when `C[n+]1ccc(Nc2ccc(NC(=O)c3ccc(Nc4cc[n+](C)c5ccc(N)cc45)cc3)cc2)cc1` was run?
Answer: Its Log Kd is 6.9.

Question: For `c1ccc2c(c1)ccc1[n+]2Cc2ccc3ccccc3[n+]2-1`, which Log Kd is on record?
Answer: Its Log Kd is 4.7.

Question: With `CS(=O)(=O)Nc1ccc(Nc2c3ccccc3nc3ccccc23)cc1` as the compound, how does the Log Kd read?
Answer: Its Log Kd is 5.63.

Question: For `CCN(CC)CCCC(C)Nc1c2ccc(Cl)cc2nc2ccc(OC)cc12` (stereo unspecified), which Log Kd is on record?
Answer: Its Log Kd is 4.25.

Question: `CCN(CC)CCOc1ccc2c(c1)C(=O)c1cc(OCCN(CC)CC)ccc1-2` was tested. Which Log Kd did it give?
Answer: Its Log Kd is 5.64.

Question: Which Log Kd does the source give for `COc1cccc2c1C(=O)c1c(O)c3c(c(O)c1C2=O)C[C@@](O)(C(C)=O)C[C@@H]3O[C@H]1C[C@H](N)[C@H](O)[C@H](C)O1` here?
Answer: Its Log Kd is 6.49.

Question: With `COc1cc(NS(C)(=O)=O)ccc1Nc1c2ccccc2nc2ccccc12` as the compound, how does the Log Kd read?
Answer: The Log Kd was 5.14.

Question: `CC[n+]1c(-c2ccccc2)c2cc(N)ccc2c2ccc(N)cc21` was tested. Which Log Kd did it give?
Answer: The Log Kd was 5.7.

Question: For `Cc1c2ccncc2c(C)c2c1[nH]c1ccccc12`, which Log Kd is on record?
Answer: Its Log Kd is 5.18.

Question: `Nc1c2ccccc2nc2ccccc12` was tested. Which Log Kd did it give?
Answer: The Log Kd was 5.7.

Question: For `Cc1cc2nc3ccccc3n(-c3cccc(N(C)C)c3)c-2c(C)c1=N`, which Log Kd is on record?
Answer: Its Log Kd is 3.64.

Question: For `Cc1c2cc[n+](C)cc2c(C)c2c1[nH]c1ccc(O)cc12`, which Log Kd is on record?
Answer: Its Log Kd is 6.11.

Question: How did the Log Kd turn out when `C[n+]1c(-c2ccccc2)c2cc(N)ccc2c2ccc(N)cc21` was run?
Answer: The Log Kd was 5.7.
